The record followed here is patent US8716493B2, “Multicyclic compounds and the use thereof” (Cephalon, Inc., priority 2000, dated 2014).

The structures appear in SMILES notation.

Sequence of recombinant human PARP (P09874 whole entry): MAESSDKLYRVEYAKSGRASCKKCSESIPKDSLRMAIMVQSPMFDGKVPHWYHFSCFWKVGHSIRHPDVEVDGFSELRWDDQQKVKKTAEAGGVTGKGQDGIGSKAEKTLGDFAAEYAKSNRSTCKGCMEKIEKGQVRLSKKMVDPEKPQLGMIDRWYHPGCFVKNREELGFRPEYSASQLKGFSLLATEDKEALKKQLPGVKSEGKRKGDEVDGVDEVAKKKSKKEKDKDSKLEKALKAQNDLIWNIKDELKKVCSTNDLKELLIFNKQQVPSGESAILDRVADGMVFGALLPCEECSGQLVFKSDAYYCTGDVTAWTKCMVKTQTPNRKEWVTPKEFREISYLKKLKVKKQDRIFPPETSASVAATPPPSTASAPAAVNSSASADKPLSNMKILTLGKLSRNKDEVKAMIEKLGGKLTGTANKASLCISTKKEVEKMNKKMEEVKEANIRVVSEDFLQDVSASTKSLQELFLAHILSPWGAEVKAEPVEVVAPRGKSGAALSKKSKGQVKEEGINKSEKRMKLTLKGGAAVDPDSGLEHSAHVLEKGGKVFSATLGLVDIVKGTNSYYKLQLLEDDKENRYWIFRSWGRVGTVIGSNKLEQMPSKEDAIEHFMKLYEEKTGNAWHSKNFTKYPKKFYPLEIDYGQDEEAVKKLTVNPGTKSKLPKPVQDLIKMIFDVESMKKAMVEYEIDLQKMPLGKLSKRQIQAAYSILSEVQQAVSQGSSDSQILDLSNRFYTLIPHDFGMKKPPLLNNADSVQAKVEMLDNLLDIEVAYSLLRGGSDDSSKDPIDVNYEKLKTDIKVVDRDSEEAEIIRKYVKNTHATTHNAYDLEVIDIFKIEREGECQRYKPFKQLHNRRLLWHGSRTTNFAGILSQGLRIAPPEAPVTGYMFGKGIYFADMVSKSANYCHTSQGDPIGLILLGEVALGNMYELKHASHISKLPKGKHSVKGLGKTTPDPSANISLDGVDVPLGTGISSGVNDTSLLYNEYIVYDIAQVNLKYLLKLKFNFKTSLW

In the first assay the target is recombinant human PARP (Homo sapiens, UniProt P09874). As to the kind of experiment: Measurement of PARP enzymatic activity (transfer of radiolabeled ADP-ribose from NAD+ to protein acceptor). Type of assay: biochemical. The conditions noted are these: PARP IC50 (nM), Table 8. Summed up:
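Radiometric assay measuring transfer of [32P]ADP-ribose from NAD+ (100 μM, 2 uCi/mL label) to histone or PARP automodification, 12 min at room temperature; acid-insoluble radioactivity counted by scintillation.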
`COCCNC(=O)Oc1ccc2[nH]c3c4c(c5c(c3c2c1)C(=O)NC5=O)CCC4` [Compound 15c]: the IC50 is 40 nM.
On the same count and under the same terms, the same measure for `CN(CCc1ccccn1)C(=O)Oc1ccc2[nH]c3c4c(c5c(c3c2c1)C(=O)NC5=O)CCC4` [Compound 15h]: 39 nM.

The same assay, now with this note: PARP IC50, Table 18.
Regarding `O=C1NC(=O)c2c1c1c(c3[nH]c4ccc(OC(=O)N5CCOCCOCCOCC5)cc4c23)CCC1` [Compound 15o], the IC50 came out at 76 nM.
Turning to `O=C1NC(=O)c2c1c1c(c3[nH]c4ccc(OC(=O)N5CCCCC5)cc4c23)CCC1` [Compound 15p], the IC50 came to 82 nM.

The assay is the same for the next values; noted with them: Table 1; read-out: PARP IC50.
Turning to `O=C1c2c3c(c4[nH]c5ccccc5c4c2C(=O)N1CCCO)CCC3` [Compound 1e], the IC50 was found to be 946 nM.
`O=C1c2c3c(c4[nH]c5ccccc5c4c2C(=O)N1S(=O)(=O)c1ccccc1)CCC3` [Compound 1j]: the IC50 came out at 250 nM.
Still for that read-out and setting: the same measure for `O=C1c2c3c(c4[nH]c5ccccc5c4c2C(=O)N1CCOCc1ccccc1)CCC3` [Compound 1n]: 1600 nM.

Still in this assay, the particulars now being: Table 2; read-out: PARP IC50.
As for `O=C1NC(=O)c2c1c1c(c3[nH]c4ccc(COCCc5ccccn5)cc4c23)CCC1` [Compound 2df], the IC50 was 104 nM.
Regarding `CN(C)CCCNC(=O)c1ccc2[nH]c3c4c(c5c(c3c2c1)C(=O)NC5=O)CCC4` [Compound 2ch], the IC50 came to 33 nM.
Regarding `O=C(CCC(=O)N1CCCCCCC1)c1ccc2[nH]c3c4c(c5c(c3c2c1)C(=O)NC5=O)CCC4` [Compound 4s], the IC50 came out at 26 nM.
Turning to `O=C(NCc1ccncc1)c1ccc2[nH]c3c4c(c5c(c3c2c1)C(=O)NC5=O)CCC4` [Compound 2ci], the IC50 worked out at 13 nM.
Take `O=CNCc1ccc2[nH]c3c4c(c5c(c3c2c1)C(=O)NC5=O)CCC4` [Compound 2ce]: the IC50 turned out to be 34 nM.
On to `O=C1NC(=O)c2c1c1c(c3[nH]c4ccc(OCCN5CCOCC5)cc4c23)CCC1` [Compound 2at], for which the IC50 was determined as 22 nM.
On the same count and under the same terms, the result for `COc1ccc2[nH]c3c4c(c5c(c3c2c1)C(=O)NC5=O)CCC4` [Compound 2ap] reads 32 nM; that for `CN(CC1CCNCC1)C(=O)c1ccc2[nH]c3c4c(c5c(c3c2c1)C(=O)NC5=O)CCC4` [Compound 2cy], 23 nM.
On to `CCOCCOc1ccc2[nH]c3c4c(c5c(c3c2c1)C(=O)NC5=O)CCC4` [Compound 2aq], for which the IC50 came to 59 nM.
On to `CC(=O)NCc1nc(-c2ccc3[nH]c4c5c(c6c(c4c3c2)C(=O)NC6=O)CCC5)cs1` [Compound 3n], for which the IC50 came out at 20 nM.
Consider `O=C1NC(=O)c2c1c1c(c3[nH]c4ccc(Br)cc4c23)CCC1` [Compound 2a], for which the IC50 was found to be 25 nM.
Same read-out and setting: the same measure for `O=C(CCC(=O)N1CCOCC1)c1ccc2[nH]c3c4c(c5c(c3c2c1)C(=O)NC5=O)CCC4` [Compound 4f]: 13 nM.
Still for that read-out and setting: the result for `NCC(=O)NCc1ccc2[nH]c3c4c(c5c(c3c2c1)C(=O)NC5=O)CCC4` [Compound 2x, 3-(N-(2-(Amino)acetyl)aminomethyl)-5,7,8,9,10,11-hexahydrocyclopent[a]pyrrolo[3,4-c]carbazole-5(6H), 7-dione] reads 45 nM.
Turning to `CN(Cc1ccncc1)C(=O)c1ccc2[nH]c3c4c(c5c(c3c2c1)C(=O)NC5=O)CCC4` [Compound 2cx], the half-inhibitory concentration (IC50) was found to be 10 nM.
As to `COC(=O)C1CCCN1CC(=O)c1ccc2[nH]c3c4c(c5c(c3c2c1)C(=O)NC5=O)CCC4` (centres unmarked) [Compound 4a], the IC50 came to 12 nM.
Take `CCN(CC)C(=O)CCC(=O)c1ccc2[nH]c3c4c(c5c(c3c2c1)C(=O)NC5=O)CCC4` [Compound 4i]: the IC50 is 12 nM.
Still for that read-out and setting: the same measure for `CN1CCN(CC(=O)c2ccc3[nH]c4c5c(c6c(c4c3c2)C(=O)NC6=O)CCC5)CC1` [Compound 2g]: 16 nM; for `CCCCN(CCCC)Cc1ccc2[nH]c3c4c(c5c(c3c2c1)C(=O)NC5=O)CCC4` [Compound 2bn]: 28 nM.
Regarding `CC(C)(C)OC(=O)N[C@@H](CCCNc1nc(-c2ccc3[nH]c4c5c(c6c(c4c3c2)C(=O)NC6=O)CCC5)cs1)C(=O)OC(C)(C)C` [Compound 3e], the IC50 is 46 nM.
Same read-out and setting: the result for `CCC(=O)NCc1ccc2[nH]c3c4c(c5c(c3c2c1)C(=O)NC5=O)CCC4` [Compound 2s, 3-(Propanoylaminomethyl)-5,7,8,9,10,11-hexahydrocyclopent[a]pyrrolo[3,4-c]carbazole-5(6H), 7-dione] reads 28 nM; that for `O=C1NC(=O)c2c1c1c(c3[nH]c4ccc(CN5CCOCC5)cc4c23)CCC1` [Compound 2bv], 32 nM.
With `CC(C)(C)S(=O)(=O)Cc1nc(-c2ccc3[nH]c4c5c(c6c(c4c3c2)C(=O)NC6=O)CCC5)cs1` [Compound 3p], the IC50 was found to be 21 nM.
With `CC(=O)Nc1nc(-c2ccc3[nH]c4c5c(c6c(c4c3c2)C(=O)NC6=O)CCC5)cs1` [Compound 3i], the IC50 turned out to be 54 nM.
The same measure, in the same setting: the result for `O=C1NC(=O)c2c1c1c(c3[nH]c4ccc(F)cc4c23)CCC1` [Compound 2c] reads 39 nM; that for `CC(C)NCc1ccc2[nH]c3c4c(c5c(c3c2c1)C(=O)NC5=O)CCC4` [Compound 2br], 25 nM.
The same measure, in the same setting: the same measure for `CN(C)CCOC(=O)c1ccc2[nH]c3c4c(c5c(c3c2c1)C(=O)NC5=O)CCC4` [Compound 2cz]: 30 nM.
In the case of `CCCN(CCC)Cc1ccc2[nH]c3c4c(c5c(c3c2c1)C(=O)NC5=O)CCC4` [Compound 2bl], the half-inhibitory concentration (IC50) turned out to be 16 nM.
Consider `Cc1nc(-c2ccc3[nH]c4c5c(c6c(c4c3c2)C(=O)NC6=O)CCC5)c(Br)s1` [Compound 3c], for which the IC50 amounted to 84 nM.
Regarding `O=C1NC(O)c2c1c1c(c3[nH]c4ccccc4c23)CCC1` (centres unmarked) [Compound 2ay], the IC50 was 408 nM.
As for `CN(C)CCNC(=O)c1ccc2[nH]c3c4c(c5c(c3c2c1)C(=O)NC5=O)CCC4` [Compound 2cg], the IC50 was found to be 31 nM.
Consider `CC(C)(C)C(=O)OCc1nc(-c2ccc3[nH]c4c5c(c6c(c4c3c2)C(=O)NC6=O)CCC5)cs1` [Compound 3y], for which the IC50 was found to be 60 nM.
`CN(C)CC(=O)OCc1ccc2[nH]c3c4c(c5c(c3c2c1)C(=O)NC5=O)CCC4` [Compound 2bg]: the IC50 amounted to 31 nM.
Consider `Cc1nc(-c2ccc3[nH]c4c5c(c6c(c4c3c2)C(=O)NC6=O)CCC5)cs1` [Compound 3b], for which the IC50 came out at 40 nM.
The same measure, in the same setting: the same measure for `O=C1NC(=O)c2c1c1c(c3[nH]c4ccc(CN(Cc5ccccc5)Cc5ccccc5)cc4c23)CCC1` [Compound 2bo]: 293 nM; for `CCN(CC)CC(=O)c1ccc2[nH]c3c4c(c5c(c3c2c1)C(=O)NC5=O)CCC4` [Compound 2j]: 21 nM; for `O=C1NC(=O)c2c1c1c(c3[nH]c4ccc(O)cc4c23)CCC1` [Compound 2ao]: 27 nM.
Same read-out and setting: the result for `O=C(O)CCC(=O)NCc1ccc2[nH]c3c4c(c5c(c3c2c1)C(=O)NC5=O)CCC4` [Compound 2ab, 3-(N-(3-(Carboxy)propanoyl)aminomethyl)-5,7,8,9,10,11-hexahydrocyclopent[a]-pyrrolo[3,4-c]carbazole-5(6H), 7-dione] reads 50 nM; that for `CC(C)(C)OC(=O)[C@@H]1CCCN1C(=O)CCC(=O)c1ccc2[nH]c3c4c(c5c(c3c2c1)C(=O)NC5=O)CCC4` [Compound 4h], 7 nM.
`O=C(O)CCC(=O)c1ccc2[nH]c3c4c(c5c(c3c2c1)C(=O)NC5=O)CCC4` [Compound 2m]: the IC50 was found to be 3 nM.
Same read-out and setting: the same measure for `COC(=O)CCCC(=O)NCc1ccc2[nH]c3c4c(c5c(c3c2c1)C(=O)NC5=O)CCC4` [Compound 2aa, 3-(N-(4-(Methoxycarbonyl)butanoyl)aminomethyl)-5,7,8,9,10,11-hexahydrocyclopent[a]pyrrolo[3,4-c]carbazole-5(6H), 7-dione]: 9 nM.
Turning to `CN1CCN(C(=O)c2ccc3[nH]c4c5c(c6c(c4c3c2)C(=O)NC6=O)CCC5)CC1` [Compound 2cq], the IC50 was 12 nM.

The assay is the same for the next values; noted with them: Table 3; read-out: PARP IC50.
As for `NCCCC[C@H](N)C(=O)N1C(=O)c2c3c(c4[nH]c5ccc(Cl)cc5c4c2C1=O)CCC3` [Compound 6f], the IC50 came out at 62 nM.

Still in this assay, the particulars now being: Table 4; read-out: PARP IC50.
For the compound `N#Cc1c[nH]c2c3c(c4c(c12)C(=O)NC4=O)CCC3` [Compound 8d, 3-Cyano-1,6,7,8-tetrahydrocyclopent[g]indole-4,5-dicarboxylate imide], the half-inhibitory concentration (IC50) was determined as 6 nM.

The same assay, now with this note: Table 18; read-out: PARP IC50.
Take `O=C1NC(=O)c2c1c1c(c3[nH]c4nccc(Cl)c4c23)CCC1` [Compound 8z]: the IC50 turned out to be 9 nM.
With `O=C1NC(=O)c2c1c1c(c3[nH]c4nc(O)c(Cl)cc4c23)CCC1` [Compound 8s], the IC50 amounted to 14 nM.
Same read-out and setting: the result for `COCCOc1cccc2[nH]c3c4c(c5c(c3c12)C(=O)NC5=O)CCC4` [Compound 14f] reads 25 nM; that for `O=C1NC(=O)c2c1c1c(c3[nH]c4cccc(OCCN5CCOCC5)c4c23)CCC1` [Compound 14d], 441 nM.
Take `O=C1NC(=O)c2c1c1c(c3[nH]c4cccc(OCCO)c4c23)CCC1` [Compound 14k]: the concentration for half-maximal inhibition (IC50) was determined as 83 nM.
The same measure, in the same setting: the result for `COc1ccnc2[nH]c3c4c(c5c(c3c12)C(=O)NC5=O)CCC4` [Compound 8x] reads 4 nM.
Regarding `COCCOc1ccnc2[nH]c3c4c(c5c(c3c12)C(=O)NC5=O)CCC4` [Compound 8aa], the IC50 came out at 10 nM.
Same read-out and setting: the same measure for `CCOCCOc1cccc2[nH]c3c4c(c5c(c3c12)C(=O)NC5=O)CCC4` [Compound 14i]: 36 nM.
On the same count and under the same terms, the same measure for `COc1cccc2[nH]c3c4c(c5c(c3c12)C(=O)N(CN1CCN(C)CC1)C5=O)CCC4` [Compound 16e]: 14 nM.

A word on the IC50: it is the concentration needed to halve the response being measured.
